# Measurements published in patent publication US20040097534A1, “Composition for the protection and regeneration of nerve cells containing berberine derivatives” (EUGENBIO INC., priority 2001, published 2004).
# “And” between values parts separate entries of the source, which are not always exact repeats. Equal values may be shown once. “Also recorded” adds a separate entry of the source.
# What was measured:
# PC12 cells [1] = assay: MTT assay, PC12 survival under serum deprivation-induced stress; type: cell-based, rat; settings: for O.D.: 2 days; for Average (O.D. relative to RPMI): RPMI = 100%
# Protocol: (§1) Cell injuries under condition of serum deprivation-induced stress and oxidative stress were measured by MTT assay. For MTT assay, Cells were seeded into N2 medium in an amount of 7.5×10^3 cells, and then a neurotoxin or a nerve growth factor was added thereto to differentiate the cells and then 0.1 volume of 4 mg/ml MTT was further added. The mixture was stored at 37° C. for 3-4 hours. After 100 μl of solubilization buffer was added to the mixture and then stored for 24 hours, O.D. values were measured by ELISA assay.
# NGF, increasing cell survival and inducing cell differentiation, was used as a positive control. After the cells were treated with berberine (0.25˜3 μg/ml), the cells were cultured for 2 days to induce nerve regeneration (see, Table 3 and FIG. 5a).
# SH-SY5Y cells = assay: MTT assay, SH-SY5Y survival under oxidative stress (H2O2); type: cell-based, human
# Protocol: SH-SY5Y cells were treated with H2O2 for 30 minutes to induce cell injuries. 3 hours before the cells were treated with H2O2, berberine (0.25˜3.5 μg) was added to cell culture to examine its cell protection effect (see, Table 4 and FIG. 4b).
# PC12 cells [2] = assay: MTT assay, PC12 survival under dexamethasone (glucocorticoid) stress; type: cell-based, rat
# Protocol: as §1
# Glucocorticoids are hormones secreted from the adrenal glands, and involve in a variety of metabolic processes including glycometabolism. In particular, stress causes release of glucocorticoids to reduce cell divisions of neuronal stem cells in the brain and induce apoptosis of nerve cells. Therefore, PC12 cells were treated with dexamethasone, a glucocorticoid derivative, to examine the effect of berberine against apoptosis of nerve cells. 3 hours after treatment with berberine, dexamethasone (1) was added to a culture solution and incubated for 2 days to induce neuroregeneration (see, Table 5 and FIG. 5b).
# HiB5 cells = assay: Induction of differentiation of HiB5 cells into nerve cells (neurite count, confocal); type: cell-based, white rat; settings: HiB5, berberine, 2 days
# Protocol: Thereafter, the culture was treated with berberine and further cultured for 2 days. The cultured cells were immunostained with nerve cell-specific labeled molecule, and then the number of cells having neurites longer than cell bodies was counted under a confocal microscope. A positive control was treated with bFGF under the same condition as described above to induce the differentiation into nerve cells. In addition, the neuroregenerative effect was examined after berberine together with bFGF was treated. The differentiation degree was measured by double-staining neurites with nerve cell-specific labeled molecule (anti-neurofilament antibody) and FITC-labeled secondary antibody (green), followed by staining cell nuclei with propidium iodide (red).
# [3] = tested on: nerve cells in CA1, dentate gyrus and entorhinal cortex; assay: Animal model for dementia (ibotenic acid into entorhinal cortex), calbindin-positive neuron count; type: in vivo, rat
# Protocol: After white rat brain was fixed with a stereotaxic frame, 1.5 μl (1 mg/ml) of ibotenic acid and PBS, or 1.5 μl (1 mg/ml) of berberine was injected into the entorhinal cortex region using a microinjector to prepare a model for dementia. […]
# Brain was fixed with 4% paraformaldehyde and cryosected to a thickness of 40 μm, and then the cryosected brain was permeablized with 0.5% Triton X-100 for 20 minutes and blocked using 15% blocking serum for 2 hours. After reacting with anti-calbindin antibody at a temperature 4° C. for 16 hours and then further reacting with FITC-labeled secondary antibody or rhodamin (TRITC)-labeled secondary antibody for 1 hour, the cells were fixed on a slide before examining under a confocal microscope.
# As an animal model for dementia, ibotenic acid was microinjected into the entorhinal cortex of adult rat brain using a stereotaxic frame.
# First, an adult rat was anesthetized, and its head was fixed with a stereotaxic frame. Subsequently, 1.5 μl (1 mg/ml) of ibotenic acid was injected into the entorhinal cortex region to prepare a model for dementia, and then berberine was injected into the same site. 2 weeks after operation, brain tissue sections were counter-stained with hematocylin to examine apoptosis and protective effect. After fluorescence-staining the cells, regions used for cell count were represented as squares (FIG. 14). In addition, the cells were fluorescence-stained with calbindin antibody, a nerve-specific marker, to examine nerve cell survival (see, Tables 8 to 10, FIGS. 11 and 12).
# white rats = assay: Toxicity and side effects in vivo
# Protocol: The dosage for berberine can be varied depending upon known factors, such as age, sex, body weight, disease severity and health condition of the recipient. The daily dosage is commonly in the range of 100 to 150 mg/60 kg of body weight in two or three installments.
# sciatic nerves = assay: Regeneration of crushed sciatic nerves (axons, myelin sheaths); type: in vivo, Sprague-Dawley white rat; settings: 3 weeks, berberine intraperitoneal
# [4] = N2, H2O2 + berberine 0.25 μg/ml
# [5] = N2 + dexamethasone + berberine 0.25 μg/ml
# [6] = N2 + dexamethasone + berberine 1.5 μg/ml
# [7] = N2 + dexamethasone + berberine 3 μg/ml
# [8] = Ibotenic Acid + Berberine, 2 weeks after operation
# [9] = berberine injected after ibotenic acid
smiles,measurement,setting,value
"COc1ccc2cc3[n+](cc2c1OC)CCc1cc2c(cc1-3)OCO2 [Berberine, 7,8,13,13a-tetradihydro-9,10-dimethoxy-2,3-(methylenedioxy) berbinium]",O.D.,PC12 cells [1]; RPMI + berberine 0.25 μg/ml,0.203
same,Average (O.D. relative to RPMI),PC12 cells [1]; RPMI + berberine 0.25 μg/ml,121%
same,O.D.,PC12 cells [1]; RPMI + berberine 1.5 μg/ml,0.239
same,Average (O.D. relative to RPMI),PC12 cells [1]; RPMI + berberine 1.5 μg/ml,142%
same,O.D.,PC12 cells [1]; RPMI + berberine 3 μg/ml,0.262
same,Average (O.D. relative to RPMI),PC12 cells [1]; RPMI + berberine 3 μg/ml,156%
same,cell survival rate versus control group,"PC12 cells [1]; serum deprivation, berberine (1.5˜3 μg/ml elsewhere in the source)",1.5 times
same,Average (O.D. relative to H2O2 alone),SH-SY5Y cells; [4],208%
same,O.D.,SH-SY5Y cells; [4],0.116
same,Average (O.D. relative to H2O2 alone),"SH-SY5Y cells; N2, H2O2 + berberine 1.5 μg/ml",287%
same,O.D.,"SH-SY5Y cells; N2, H2O2 + berberine 1.5 μg/ml",0.16
same,Average (O.D. relative to H2O2 alone),"SH-SY5Y cells; N2, H2O2 + berberine 3 μg/ml",344%
same,O.D.,"SH-SY5Y cells; N2, H2O2 + berberine 3 μg/ml",0.192
same,Average (O.D. relative to H2O2 alone),"SH-SY5Y cells; N2, H2O2 + berberine 3.5 μg/ml",228%
same,O.D.,"SH-SY5Y cells; N2, H2O2 + berberine 3.5 μg/ml",0.127
same,Average (O.D. relative to dexamethasone alone),PC12 cells [2]; [5],111%
same,O.D.,PC12 cells [2]; [5],0.214
same,Average (O.D. relative to dexamethasone alone),PC12 cells [2]; [6],127%
same,O.D.,PC12 cells [2]; [6],0.245
same,Average (O.D. relative to dexamethasone alone),PC12 cells [2]; [7],132%
same,O.D.,PC12 cells [2]; [7],0.253
same,cell survival rate increase,"PC12 cells [2]; dexamethasone stress, 2 days",about 1.3 times
same,"number of cells differentiated into nerve cells, increase",HiB5 cells,increased two times
same,Number of differentiated cells,HiB5 cells; N2 = 3.07,7.87
same,Average (%) of differentiated cells,HiB5 cells; N2 = 14.46,31.57%
same,total average cell numbers,HiB5 cells; N2 = 22.38,26.61
same,"cell number (%) relative to Ibotenic Acid, CA, average",[3]; Berberine alone,311%
same,"cell number (%) relative to Ibotenic Acid, DG, average",[3]; Berberine alone,204%
same,"cell number (%) relative to Ibotenic Acid, ENT, average",[3]; Berberine alone,225%
same,"cell number relative to Ibotenic Acid average = 100, CA (individual animals #1-#3)",[3]; Berberine alone,355 and 257 and 320
same,"cell number relative to Ibotenic Acid average = 100, DG (individual animals #1-#3)",[3]; Berberine alone,229 and 189 and 195
same,"cell number relative to Ibotenic Acid average = 100, ENT (individual animals #1-#3)",[3]; Berberine alone,237 and 208 and 229
same,"cell number, CA (individual animals #1-#3)",[3]; Berberine alone,174 and 126 and 157
same,"cell number, CA, AVR",[3]; Berberine alone,152.3
same,"cell number, DG (individual animals #1-#3)",[3]; Berberine alone,421
same,"cell number, DG, AVR",[3]; Berberine alone,375.3
same,"cell number, ENT (individual animals #1-#3)",[3]; Berberine alone,173 and 152 and 167
same,"cell number, ENT, AVR",[3]; Berberine alone,164
same,"cell number (%) relative to Ibotenic Acid, CA, average",[3]; Ibotenic Acid + Berberine,278%
same,"cell number (%) relative to Ibotenic Acid, DG, average",[3]; Ibotenic Acid + Berberine,190%
same,"cell number (%) relative to Ibotenic Acid, ENT, average",[3]; Ibotenic Acid + Berberine,126%
same,"cell number relative to Ibotenic Acid average = 100, CA (individual animals #1-#3)",[3]; Ibotenic Acid + Berberine,231 and 337 and 267
same,"cell number relative to Ibotenic Acid average = 100, DG (individual animals #1-#3)",[3]; Ibotenic Acid + Berberine,221 and 157 and 191
same,"cell number relative to Ibotenic Acid average = 100, ENT (individual animals #1-#3)",[3]; Ibotenic Acid + Berberine,129 and 122 and 127
same,"cell number, CA, AVR",[3]; Ibotenic Acid + Berberine,136.3
same,"cell number, DG, AVR",[3]; Ibotenic Acid + Berberine,348.7
same,"cell number, ENT, AVR",[3]; Ibotenic Acid + Berberine,92
same,"cell number, CA (individual animals #1-#3)",[3]; [8],113 and 165 and 131
same,"cell number, DG (Dentate Gyrus) (individual animals #1-#3)",[3]; [8],406 and 289 and 351
same,"cell number, ENT (Entorhinal Cortex) (individual animals #1-#3)",[3]; [8],94 and 89 and 93
same,survival of calbindin-positive neurons in the entorhinal cortex,[3]; [9],somewhat increased
same,"survival rates of granule cells in the dentate gyrus regions, increase",[3]; [9],doubled; also recorded: two times
same,"survival rates of pyramidal cells in the CA1 region, increase",[3]; [9],2.5 times
same,LD50,white rats; intraperitoneally injected,24.3 mg/kg
same,acute toxicity,white rats; white rats,no acute toxicity
same,side effects on liver functions,white rats; white rats,no side effects on liver functions
same,number of axons longer than 300 μm,sciatic nerves; PBS = 21.3,51.6
same,number of myelin sheaths longer than 200 μm,sciatic nerves; PBS = 40,112
